# In patent EP1994938A1, “New lipoglycodepsipeptide compositions” (priority 2007, dated 2008):
# What was measured:
# [1] = tested on: Streptococcus spp., Staphylococcus spp. and Enterococcus spp.; settings: including antibiotic resistant strains (VRE, MRSA); cited from earlier work
# [2] = tested on: Enterococcus faecalis ATCC 29212; assay: Broth microdilution MIC (CLSI), Ca2+ adjusted Mueller Hinton broth with 4% human serum albumin; format: cell-based
# Experimental: (§1) Herein, the minimum inhibitory concentration for the growth inhibition was determined by cultivation of the bacteria in Ca^2+ adjusted Mueller Hinton broth (broth microdilution method) according to the CLSI (previously NCCLS) rules (National Committee for Clinical Laboratory Standards. 2003. Methods for dilution antimicrobial susceptibility tests for bacteria that grow aerobically; approved standard - 6th ed. Document M7-A6. Clinical and Laboratory Standards Institute, Wayne, PA, USA). […] The Gram-positive strains tested for the cultivation methods were: • Staphylococcus aureus ATCC 29213 • Enterococcus faecalis ATCC 29212
# (§2) The following inocula were incubated: Table 3
# [3] = tested on: Staphylococcus aureus ATCC 29213; assay: as above; format: cell-based
# Experimental: as §1, §2
# [4] = fat emulsion formulation with an oil phase of 8%; cited from earlier work
substance,measurement,setting,value
ramoplanin,general MICs (Minimal Inhibition Concentrations),[1],below 1 µg/ml
same,Antibiotic activity (MIC),[2]; Ramoplanin : SBE-β-CD 1:0,0.5 µg/mL
same,Antibiotic activity (MIC),[2]; Ramoplanin : SBE-β-CD 1:2,0.5 µg/mL
same,Antibiotic activity (MIC),[2]; Ramoplanin : SBE-β-CD 1:10,0.5 µg/mL
same,Antibiotic activity (MIC),[3]; Ramoplanin : SBE-β-CD 1:0,0.5 µg/mL
same,Antibiotic activity (MIC),[3]; Ramoplanin : SBE-β-CD 1:2,0.5 µg/mL
same,Antibiotic activity (MIC),[3]; Ramoplanin : SBE-β-CD 1:10,0.5 µg/mL
same,effectiveness in septicaemia mouse models,[4],effective
